In US11478489B2, “Selective accretion of cytoprotectant in radiation-sensitive tissues and uses thereof” (WILLIAM MARSH RICE UNIVERSITY, priority 2017, dated 2022):
Where two headings read alike, the source gives them in different places.

Columns and labels:
[1] = system: duodenal and jejunal crypts; assay: Microcolony assay (Withers-Elkind), surviving crypts after 12 Gy whole body irradiation; assay type: in vivo, C3Hf/KamLaw mice; conditions: jejunum, oral, 30 min prior to 12 Gy WBI; no further benefit at 1000 mg/kg
Procedure: (§1) WR-2721 Trihydrate (Toronto Research Chemicals Inc; North York, Ontario, Canada) was diluted in PBS (with 0.2 conversion factor to adjust for trihydrate) and was administered by IP injection at 25 or 250 or 500 mg/kg or by oral gavage at doses […] 150 to 1000 mg/kg in a volume of 0.1 ml.
For the microcolony assay, a single dose of 12 Gy whole body irradiation (WBI) was administered 15 min or 30 min after WR-2721 treatment using a Pantak 300 x-ray unit (Pantak; East Haven, Conn.), with 300 kVp X-rays at a dose rate of 1.84 Gy/min. Un-anesthetized mice were loosely restrained in a well ventilated 15×15×2 cm Lucite box during WBI.
Viable jejunal crypts were quantified following a single dose of 12 Gy WBI+/− a single oral dose of WR-2721 given at 15 min or 30 min prior to radiation using the microcolony assay. Mice were euthanized 3 days and 14 hours after receiving WBI, and segments of jejunum and duodenum were resected and fixed in 10% neutral buffered formalin. Tissue was then embedded in paraffin, and four transverse slices of jejunum and duodenum were stained with hematoxylin and eosin per mouse. The number of regenerating crypts per transverse section was scored microscopically and averaged over the 4 sections per animal for each tissue type. All slides were scored by a single observer blinded to treatment group. […]

[2] = Tolerability: body weight and food consumption as a model of nausea; assay type: in vivo, C57BL/6JLaw mice
Procedure: as §1
Severe nausea is a common and worrisome side effect of systemic WR-2721, and the concern that oral administration of the drug might exacerbate this side effect was examined. […] Thus, body weight and food consumption was closely monitored as a model of nausea in mice. Based on the results of the microcolony assay (FIG. 1), 500 mg/kg were used as the dose for toxicity testing. Mice were treated daily for 5 consecutive days with vehicle or WR-2721 administered IP or Per os (PO), and body weight and food consumption were monitored daily (FIGS. 2A and 2B, respectively). There was only one vehicle control group that was subjected to both gavage and intraperitoneal injections to more stringently control for the stress of drug administration from either IP or PO route. Despite this intensive intervention, the vehicle control animals maintained their initial bodyweight and food consumption throughout the study (FIGS. 2A and 2B).

[3] = mouse, in vivo, 25 min
Procedure: Next, the specificity of WR-1065 enrichment in intestines was determined in a genetically engineered mouse model. Kras^LSL/+; Trp53^FL/+; Ptfla^Cre/+ (KPC) mice that develop spontaneous pancreatic cancer were bred, and then backcrossed to a C57BL/6 background over 10 generations to eliminate the confounding issue of genetic variance from […] mice. These autochthonous tumors are thought to recapitulate the desmoplasia observed in human tumors that may make these tumors more aggressive. To be an effective an effective clinical radioprotectant, WR-1065 should not accumulate in tumors. Thus, plasma, liver, duodenum, jejunum and pancreatic tumors were collected 25 min after oral administration of 500 mg/kg (HED=41 mg/kg), or IP administration of 250 mg/kg WR-2721 (HED=20 mg/kg) to determine the concentrations of the WR-1065 (see schema in FIG. 4D).

[4] = given intravenously; cited from earlier work
[5] = LC/MS-MS analysis of WR-1065 plasma and tissue concentrations, C57BL/6 mice; conditions: WR-2721 500 mg/kg oral, 25 min
Procedure: Mice were treated with either 500 mg/kg of WR-2721 by oral gavage, or 250 mg/kg by IP injection. After 17 min had elapsed, the mice were anesthetized with isoflurane gas (3% isoflurane, oxygen flow rate of 2 L/min). After 8 min of anesthesia, whole blood and tissues were collected. The total amount of time between treatment and tissue collection was 25 min.
While under isoflurane anesthesia, the whole blood sample was collected via cardiac puncture and was immediately transferred to a BD Microtainer® blood collection tube containing K2-EDTA (Becton Dickinson; Franklin Lakes, N.J.). The K2-EDTA whole blood was then processed to plasma by centrifugation at 3,000 g for 4 min. After processing, a volume of the plasma supernatant (typically 200 μL) was removed and immediately transferred to a fresh 1.4 mL Matrix polypropylene (PP) tube (Thermo Fisher Scientific; Waltham, Mass.) containing a 50 μL aliquot of 10% trichloroacetic acid (TCA). After vortexing, the TCA-treated plasma samples were stored on ice for transport from the vivarium to the laboratory for further processing. The TCA-treated plasma samples were then centrifuged at 17,000 g for 5 min, and the supernatant was transferred to a fresh 1.4 mL Matrix tube, and the samples were either extracted and analyzed immediately or capped for −80° C. storage until analysis. […]

[6] = system: C57BL/6 mice given lethal fractionated radiation; assay: Survival study after fractionated SBRT to the upper abdomen; assay type: in vivo, C57BL/6JLaw mice; conditions: oral 500 mg/kg 25 min prior to each of 5 daily fractions of 12.5 Gy, 10 mm field; all vehicle controls died in fewer than 10 days
Procedure: (§2) For survival studies, SBRT was given for 5 consecutive days 25 min after administration of vehicle or WR-2721 using the XRAD 225Cx small animal irradiator (Precision X-Ray; North Branford, Conn.) fitted with a conformal collimator to produce a circular 10 mm diameter radiation field. Mice were anesthetized with isoflurane gas for CT imaging and irradiation. Each mouse was imaged using the XRAD 225Cx cone beam CT prior to irradiation in order to align the radiation field so that the cranial edge of the field was located 5 mm below the diaphragm at the isocenter of the mouse. This field exposed the pancreas, duodenum, jejunum and liver to radiation. Radiation was administered anterior-posterior-posterio-anterior (AP-PA).
(§3) Mice were treated with WR-2721 or vehicle by intraperitoneal (IP) injection or oral gavage followed by SBRT and monitored on a daily basis. […] Time to euthanasia and percent survival were assessed.
It was hypothesized that the maximal benefit of radioprotection would likely occur between 12 and 13 Gy at 12.5 Gy×5 fractions (62.5 Gy; D2Eq=117.2 Gy). […] Remarkably, 100% of mice that received oral WR-2721 lived beyond 30 days, while all vehicle controls died in fewer than 10 days FIG. 3D, log rank p=0.0035).

[7] = system: KPC mice with spontaneous pancreatic cancer; assay: Survival of tumor-bearing KPC mice after SBRT; assay type: in vivo, Kras LSL/+; Trp53 FL/+; Ptf1a Cre/+ (KPC) mice; conditions: SBRT 12.5 Gy x 5 + oral WR-2721 25 min prior to each fraction; VEH and SBRT+VEH 15 days
Procedure: as §2, §3
Further confirmation is illustrated in FIG. 6. KPC Mice were enrolled onto the study shortly after diagnosis and were treated to vehicle alone, SBRT with vehicle or SBRT with oral WR-2721. The SBRT field was 10 mm given AP/PA to the tumor and the dose was 12.5 Gy per day for 5 consecutive days for a total dose of 62.5 Gy (EQD2=117.2 Gy; α/β10=140.6). The tumors were identified by micro CT and ultrasound on a daily basis without fiducials. […]

[8] = Methylene blue gut assay (GI transit time); assay type: in vivo, C57BL/6 mice
Procedure: In order to determine the rate at which oral solutions such as WR-2721 traverse the digestive tract of 8-week old C57BL/6 mice following oral gavage, a 1% (w/v) solution of methylene blue in PBS was gavaged in a total volume of 0.1 ml. Mice were then euthanized at 5, 10, 15, 25 and 30 min after the dye administration and the progress of the methylene blue stain through the intestines was examined. Mice were anesthetized with isoflurane 8 min prior to euthanasia following the same procedure used prior to irradiation (8 min at 3% isoflurane and oxygen flow rate of 2 L/min) to account for any potential changes it might have on GI transit time. Methylene blue dye progress was examined in situ for comparison with the location of our standard radiation field and then the intestine was excised so that distance traveled could be determined.

[9] = oral 500 mg/kg daily for 5 consecutive days

NCCCNCCSP(=O)(O)O [WR-2721, S-2-(3-aminopropylamino)ethyl dihydrogen phosphorothioate]
dose at which radiation protection was maximized [1]: 500 mg/kg | day by which euthanasia was required ([2]; intraperitoneal 500 mg/kg daily): ≤ 4 days | body weight and food consumption ([2]; intraperitoneal 500 mg/kg daily, 5 consecutive days planned): dramatic decrease in food consumption and body weight | body weight and food consumption [2, 9]: modest initial decrease in body weight and food consumption | time to complete recovery of body weight after stopping treatment [2, 9]: ≤ 2 days | WR-1065 concentration in duodenum ([3]; ip, 250 mg/kg): 236.2±8.6 pmol WR-1065/mg tissue | WR-1065 concentration in jejunum ([3]; ip, 250 mg/kg): 275.5±5.0 pmol WR-1065/mg tissue | WR-1065 concentration in liver ([3]; ip, 250 mg/kg): 420±69.8 pmol WR-1065/mg tissue | WR-1065 concentration in pancreatic tumors ([3]; ip, 250 mg/kg): 248±30.2 pmol WR-1065/mg tissue | WR-1065 concentration in duodenum ([3]; po, 500 mg/kg): 200.6±23.3 pmol WR-1065/mg tissue | WR-1065 concentration in jejunum ([3]; po, 500 mg/kg): 757.7±26.8 pmol WR-1065/mg tissue | WR-1065 concentration in liver ([3]; po, 500 mg/kg): 59.9±26.8 pmol WR-1065/mg tissue | WR-1065 concentration in tumor ([3]; po, 500 mg/kg): 24.5±1.9 pmol WR-1065/mg tissue | enrichment of the drug in the intestines compared to tumor ([3]; po, 500 mg/kg): 10-40 fold | side effects [4]: severe nausea and hypotension | enhancement of WR-1065 within duodenum and jejunum compared to liver [5]: six- to twelve-fold | mice that lived beyond 30 days [6]: 100% | median survival [7]: 40 days

CN(C)c1ccc2nc3ccc(=[N+](C)C)cc-3sc2c1 [Methylene blue, methylene blue]
time at which dye was in the jejunum ([8]; C57BL/6, mouse, in vivo, po): 15 to 30 min | time to reach the duodenum ([8]; C57BL/6, mouse, in vivo, po): ≤ 10 min | dye front within 30 min ([8]; oral gavage, 1% (w/v) in PBS, 0.1 ml): had not reached the cecum or large intestine
